Laboratory results taken from patent US9241993B2, “Inhibitors of branched-chain-aminotransferase-1 (BCAT1) for the treatment of brain tumors” (Deutsches Krebsforschungszentrum, priority 2011, dated 2016).

Columns and labels:
Format in all cases: cell-based, human
[1] = tested on: glioblastoma cell lines U87-MG, HS683 and U373-MG; experiment: Click-iT EdU cell proliferation assay after gabapentin treatment; conditions: concentration-dependent
Procedure: (§1) (i) Treatment with dimethyl-α-ketoglutarate and Gabapentin 5×10^4 cells/well were seeded in 24-well plates in a total volume of 500 μl cell culture medium. The medium was removed 16 hours after seeding the cells, and replaced with 500 μl medium containing 5 mM or 10 mM dimethyl-α-ketoglutarate (Dimethyl 2-oxoglutarate; Sigma-Aldrich) or 5 mM, 10 mM or 20 mM gabapentin ([…]; Sigma-Aldrich). Corresponding volumes of 200 mM HEPES buffer (pH 7.4) were added to the respective control wells.
To assess the proliferation of glioma cells after treatment with gabapentin or after lentiviral knockdown, the Click-iT® EdU cell proliferation assay (Invitrogen, Karlsruhe, Germany) was used following the manufacturer's instructions. The cells were incubated with 10 μM of the nucleoside analog EdU (5-ethynyl-2′deoxyuridine) for 16 hours. Quantification of cells that incorporated EdU was performed using FACS Canto II (BD Biosciences).
The human glioblastoma cell lines U87-MG (HTB-14), HS683 (HTB-138) and U373-MG (HTB-17; LGC Standards, Teddington TW11 0LY U.K.) were cultured in Dulbecco's Minimal Essential Medium supplemented with 10% fetal calf serum and 1% penicillin/streptomycin-mix. 5×10^4 cells/well were seeded in 24 well plates in a total volume of 500 μl cell culture medium. […]

U87-MG = experiment: Cell-cycle analysis (propidium iodide, flow cytometry), sub-G1 fraction; conditions: 20 mM, 20 hours after treatment
Procedure: (§2) Cell-cycle analysis was performed 20 hours after treatment with gabapentin and 6 days after lentiviral transduction. Nicoletti buffer (0.1% sodium citrate, pH7.4, 0.05% Triton X-100, 50 μg propidium iodide) was added to the wells containing both dead and living cells. After 4 hours in the dark at 4° C., DNA content was analysed by flow cytometry using FACS Canto II (BD Biosciences, San Jose, Calif., USA). FACS Diva software was used to quantify the distribution of cells in each cell-cycle phase: sub-G1 (dead cells), G1, S, and G2/M. For investigation of apoptotic activity after lentivira knockdown NCH421k cells were incubated with annexin V-P (Phycoerythrin) and 7-AAD (7-aminoactinomycin D, BD Biosciences) for 15 minutes in the dark, immediately followed by flow cytometry.

U373-MG = experiment: as above; conditions: 20 mM, 20 hours after treatment
Procedure: as §2

HS683 = experiment: as above; conditions: HS683, 20 mM, 20 hours after treatment
Procedure: as §2

glioma cell lines = experiment: Cell-cycle analysis, G1 phase; conditions: gabapentin treatment, 20 hours
Procedure: as §2

glioma cells = experiment: Glutamate quantification in supernatant of gabapentin-treated cells; conditions: 20 mM, 6 and 12 hours after start of treatment
Procedure: as §1
Glutamate concentration in the supernatant of cells treated with gabapentin was determined using the glutamine/glutamate determination Kit (GLN-1; Sigma-Aldrich) according to the manufacturer's instructions. The reaction volumes were scaled down to 100 μl total volume and absorbance was measured in triplicate in a microplate (Corning° 96 Well Clear Flat Bottom UV-Transparent Microplate) using a Tecan Infinite M200 plate reader (Tecan, Austria). Data were normalised to the number of cells per well.

U-373MG cells = experiment: 1H-NMR spectroscopy of cell extracts, intracellular BCAA levels; conditions: 20 mM gabapentin for 20 hours vs control
Procedure: as §1
(§3) Cells were harvested by trypsinization, washed once with ice-cold PBS, and the cell pellet was frozen at −80° C. Typically 1×10^8 harvested cells were subjected to perchloric acid extraction followed by KOH neutralization according to published protocols^50. Briefly, 2 mL of ice-cold 1 N HClO4 were added to a frozen pellet of harvested cells. The pellet was disrupted using a Teflon pestle and a glass homogeniser. 1 mL of ice-cold water was added to the lysate, vortexed for 90 s and centrifuged at 10000×g for 10 min at 4° C. The pellet was re-extracted and the supernatants were combined. The extract was neutralised with KOH and the pH was adjusted to 6.5-7.0 Precipitated KClO4 was pelleted at 25000×g for 20 min and the supernatant was lyophilised.
(§4) The lyophilised extract residues were dissolved in 0.5 ml of a D2O buffer (99.9% D) containing 30 mM sodium phosphate and 0.1 mM sodium azide (pH 7.02). For quantitative analysis a reference capillary (1.5 mm OD, 0.99 mm ID) was filled with a solution of 11 mM trimethylsilyl-2,2,3,3-tetradeuteropropanoic acid (TSP, sodium salt) in the D2O buffer described above. Subsequently, the capillary was sealed in the flame of a Bunsen burner. A calibration solution was prepared by placing weighed amounts of glucose and citric acid in the D2O buffer to give the calculated concentrations of 10.49 mM glucose and 4.95 […]. ^1H-NMR spectra of the calibration solution+capillary were acquired at 600 MHz (Avance AV-600, Bruker BioSpin GmbH) using a standard 5-mm NMR tube and a triple-resonance inverse probe under the same conditions to be used for the extracts (20° C., presaturation of residual HDO signal, repetition time TR=7 s, 30° flip angle). […] Cell extracts were measured with the calibrated reference capillary inserted (512 transients in 1 hour), and the ^1H-NMR signals for the branched-chain amino acids, various metabolites, and the TSP reference were integrated. The TSP integral was defined as 4.60 mM so that the metabolite signal integrals gave directly the metabolite concentrations in mM (μmol/ml) for the 0.5 ml volumes used.

U-87MG cells = experiment: as above; conditions: 20 mM gabapentin for 20 hours vs control
Procedure: as §1, §3, §4

BCAT1 expression = experiment: BCAT1 RNA and protein expression (qRT-PCR, Western blot) in glioma cell lines; conditions: increasing concentration of dimethyl-alpha-KG in the culture medium (5 mM or 10 mM)
Procedure: Total RNA was extracted using the AllPrep DNA/RNA/Protein Mini Kit (Qiagen) according to the manufacturer's instructions. FirstChoice® Human Brain Reference Total RNA from Ambion served as normal brain RNA pool (n=23 donors). Total RNA (500 ng) was reverse-transcribed using random primers and superscript II (Invitrogen, Karlsruhe, Germany) according to the manufacturer's instructions. Each complimentary DNA sample was analysed in triplicate with the Applied Biosystems Prism 7900HT Fast Real-Time PCR System (Applied Biosystems, Foster City, Calif., USA) using Absolute SYBR Green ROX Mix (ABgene, Epsom, UK). The relative amount of specific mRNA was normalised to ARF, B2M and TBP.
All experiments involving the use of human tissues are carries out in line with the guidelines of the institutional review board of the Medical Faculty at Heinrich Heine University Dusseldorf. Fresh frozen human tumor tissue samples and a non-neoplastic brain tissue sample were lysed in guanidine isothiocyanate solution (4M) using an ULTRA-TURRAX (IKA, Staufen, Germany) and subjected to CsCl-ultracentrifugation. […]
Infection of glioma cells with virus at an M.O.I. of 2 was carried out in the presence of 8 μg/ml of polybrene (Chemicon, Billerica, Mass., USA). […] Quantification of BCAT1 and IDH1 knockdown was assessed by quantitative real-time PCR and Western blot. […]

| Compound | reduction of cell proliferation ([1]; 5, 10 and 20 mM, all cell lines, vs mock treated cells (Example 2)) | reduction of proliferation, estimated based on EdU-incorporation ([1]; 20 hours (Example 9, FIG. 6a)) | Average sub-G1 (U87-MG) [%] | Average sub-G1 (U373-MG) [%] | Average sub-G1 (HS683) [%] | cell cycle effect (fraction of cells in G1-phase) (glioma cell lines) | Glutamate release (glioma cells) | increase of isoleucine (Ile) level, factor (U-373MG cells) | increase of leucine (Leu) level, factor (U-373MG cells) | increase of valine (Val) level, factor (U-373MG cells) | increase of isoleucine (Ile) level, factor (U-87MG cells) | increase of leucine (Leu) level, factor (U-87MG cells) | increase of valine (Val) level, factor (U-87MG cells) | BCAT1 expression (BCAT1 expression) |
| --- | --- | --- | --- | --- | --- | --- | --- | --- | --- | --- | --- | --- | --- | --- |
| NCC1(CC(=O)O)CCCCC1 [Gabapentin, 1-(aminomethyl) cyclohexaneacetic acid] | 20-55% | up to 56% | 2.4 | 2.8 | 10.1 | partial G1-arrest | significantly reduced | 2.32 | 2.18 | 1.83 | 1.19 | 1.38 | 1.09 |  |
| COC(=O)CCC(=O)C(=O)OC [dimethyl-alpha-KG, Dimethyl 2-oxoglutarate] |  |  |  |  |  |  |  |  |  |  |  |  |  | upregulated |
